Measurements published in patent US20230050846A1, “TREATMENT OF HEPATIC AND CARDIOVASCULAR DISORDERS” (LIFESEARCH, priority 2019, published 2023).
Peptide text beside a SMILES is read from it. * marks the point of attachment. Palmitoyl = CCCCCCCCCCCCCCCC(=O)*

What was measured:
[1] = Stability in PBS (LC-HRMS); type: physicochemical; details: 4° C. and 37° C., 4 weeks
Procedure: Peptide of Formula (I) or peptide of Formula (II) were prepared at a concentration of 200 μg/mL in PBS or mixed with EDTA plasma or serum from human (Etablissement Frangais du Sang, EFS) or mouse (C57BL/6J, cardiac puncture). Aliquots from PBS samples (40 μL) were incubated at 4° C. or 37° C. for 0, 1, 2 and 4 weeks. Aliquots from plasma and serum samples (50 μL) were incubated at 4° C. or 37° C. for 0, 1, 2, 4, 6, 12, 24 h.
A mixed solution of peptides of formula (I) and (II) was constituted and serially diluted in PBS to obtain seven standard solutions, ranging from 200 μg/mL to 0.2 μg/mL. In parallel, a mixed solution of labelled peptides of Formula (I) and (II) (Thermo Scientific, Biopolymers Darmstadt, Germany) was prepared in PBS at 100 μg/mL. The mixed solution of labelled peptides (25 μL) was added to 25 μL of standard solutions as well as to PBS, plasma and serum samples. Acetonitrile (150 μL) was added to each sample to precipitate plasma/serum proteins. […] Peptides were analyzed according to their major exact m/z (i 5 ppm, Table 1) and each peptide signal was normalized with that of its labelled internal standard. Peptide concentrations were calculated using calibration curves plotted from standard solutions (linear regression, 1/x weighted, origin excluded).

human F1Fo-ATPase = biological target: T1, human F1Fo-ATPase (Homo sapiens, UniProt P06576); experiment: F1-ATPase activity assay (NADH-coupled, purified enzyme); type: biochemical; details: 1 μM
T1 construct: Human F1Fo-ATPase was purified from HepG2 cells by immunocapture; endogenous in cells; host or cells: HepG2 cells; complex isolated by immunocapture with anti-ATP synthase antibody 12F4AD8AF8 (#ab109867, Abcam)
Excerpt: The mature human IF1 protein (SEQ ID NO: 5) was chemically synthesized by GenScript (Piscataway, N.J., USA) at >80% purity. The peptides derived from the mature human IF1 sequence (IF1-1-60, IF1-10-56, IF1-10-47) were produced by BachemAG (Bubendorf, Switzerland) with >90% purity.
Human F1Fo-ATPase was purified from HepG2 cells by immunocapture using mouse monoclonal anti-ATP synthase antibody (12F4AD8AF8, #ab109867, Abcam) according to manufacturer's instructions.
Measurement of F1-ATPase activity was assayed as previously described. Briefly, 10 μg of F1Fo-ATPase was prepared into 50 μL of activity assay buffer (10 mM HEPES, 150 mM NaCl, 5 mM KCl, 5 mM MgCl2, 0.5 mM phosphoenolpyruvate, 250 μM NADH, 100 μM ATP, 20 U lactate dehydrogenase, 120 U pyruvate kinase). The mixture was incubated at 37° C. for 30 min. Then the F1-ATPase activity was measured in a 96-well microplate by adding 5 μL of the mixture (1 μg of F1Fo-ATPase per point) per well to 200 μL of activity assay buffer at 37° C., and by adding 5 μL of buffer with or without peptide (1 μM each). The reduction in the absorbance of NADH was measured at 340 nm for 5 min with a Varioskan™ Flash Multimode Reader (Thermo Fisher Scientific). A slope was calculated for each well and the results expressed as a percentage of the control slope.

Row | stability in PBS [1] | stimulation of F1-ATPase activity (human F1Fo-ATPase) | Compound
1 | stable | 43% | CCCCCCCCCCCCCCCC(=O)NCCCC[C@H](NC(=O)[C@H](CCC(=O)O)NC(=O)[C@H](CCCNC(=N)N)NC(=O)[C@H](CO)NC(=O)[C@H](CCC(N)=O)NC(=O)[C@H](C)NC(=O)[C@H](CCCNC(=N)N)NC(=O)[C@H](Cc1ccccc1)NC(=O)[C@H](Cc1ccc(O)cc1)NC(=O)[C@H](CCCNC(=N)N)NC(=O)[C@H](CCC(=O)O)NC(=O)[C@H](CCC(=O)O)NC(=O)[C@H](CCC(=O)O)NC(=O)[C@H](C)NC(=O)[C@H](CCC(N)=O)NC(=O)[C@H](CCC(=O)O)NC(=O)[C@H](CCCNC(=N)N)NC(=O)[C@H](CCCCN)NC(=O)CNC(=O)[C@H](Cc1ccccc1)NC(=O)[C@H](C)NC(=O)CNC(=O)CNC(=O)[C@H](C)NC(=O)[C@H](CCC(=O)O)NC(=O)[C@H](CCCNC(=N)N)NC(=O)[C@@H](NC(=O)[C@H](CO)NC(=O)CNC(=O)[C@H](C)NC(=O)CNC(=O)[C@H](CCCNC(=N)N)NC(C)=O)[C@@H](C)CC)C(N)=O [peptide of formula (II), CH3CO-[SEQ ID NO: 1]-K-[palmitoyl]-NH2] (Ac-RGAGSIREAGGAFGKREQAEEERYFRAQSREK(Palmitoyl)-NH2)
2 | stable | 36% | Ac-RGAGSIREAGGAFGKREQAEEERYFRAQSRE-NH2 [peptide of formula (I), CH3CO-[SEQ ID NO: 1]-NH2]
